27 compounds from US10889565B2, “4-hydroxy-3-sulfonylpyridin-2(1H)-ones as APJ receptor agonists” (BRISTOL-MYERS SQUIBB COMPANY, priority 2016, dated 2021) can be followed below.

The target of the test is T1, human APJ receptor (Homo sapiens, UniProt P35414).
T1 construct: expressed in transfected cells
T1 sequence (P35414 1-380): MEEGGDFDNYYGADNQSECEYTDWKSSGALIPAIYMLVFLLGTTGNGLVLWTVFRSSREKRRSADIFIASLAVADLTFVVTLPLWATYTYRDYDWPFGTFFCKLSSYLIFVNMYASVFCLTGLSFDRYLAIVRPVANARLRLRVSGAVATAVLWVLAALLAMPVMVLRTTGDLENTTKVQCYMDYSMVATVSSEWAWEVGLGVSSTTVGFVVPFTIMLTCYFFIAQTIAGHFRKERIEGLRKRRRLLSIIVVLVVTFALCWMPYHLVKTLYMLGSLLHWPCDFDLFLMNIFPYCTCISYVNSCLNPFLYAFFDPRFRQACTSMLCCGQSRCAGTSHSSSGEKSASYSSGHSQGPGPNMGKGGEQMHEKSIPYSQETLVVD
The experiment in a line: Intracellular cAMP accumulation assay (APJ hcAMP, HTRF). The class given is cell-based. The conditions noted are these: HEK293 cells stably expressing human APJ receptor; inhibition of forskolin-mediated cAMP production; read-out: Human APJ cAMP EC50 Potency range. As for the experimental part: Intracellular cAMP Accumulation Assay
HEK293 cells stably expressing human APJ receptor were used to assess the activity of compounds. Cultured cells were detached and resuspended in the cAMP Homogeneous Time-Resolved Fluorescence (HTRF) assay buffer (Cisbio cat; #62AM4PEJ). The assay was performed in 384-well assay plates (Perkin-Elmer; cat #6008289) according to assay protocol provided by the manufacturer. Serial dilutions of a compound together with assay buffer containing […] IBMX and 2 μM forskolin were added to each well containing 5,000 cells and incubated for 30 minutes at room temperature. Subsequently, cAMP D2 reagent was added in the lysis buffer followed by the EuK antibody (Cisbio; cat #62AM4PEJ) and incubated for 60 min. The fluorescence emission ratio was measured using fluorometer. The intracellular cAMP concentrations (compound-stimulated inhibition of forskolin-mediated cAMP production) were calculated by extrapolation from a standard curve using known cAMP concentrations. The EC50 values were obtained by fitting the data to a sigmoidal concentration-response curve with variable slope. The maximal achievable inhibition of forskolin-induced cAMP levels (Ymax) for each compound was expressed as relative percentage of inhibition attained using pyroglutamated apelin-13 ((Pyr1)apelin-13) peptide, which was set to 100%.
The examples disclosed below were tested in the APJ in vitro assays described above and were found having human APJ cyclic AMP (hcAMP) activity. The EC50 value of each compound is presented at the end of the example description.
The biological activity of the exemplified compounds of this invention determined by the assay described above is shown at the end of each example.
A general note: Cyclic AMP is a second messenger, typically raised through Gs and lowered through Gi signalling.

Take `CCCCc1[nH]c(=O)c(S(=O)(=O)c2ccc(-c3ccc(F)nc3)cn2)c(O)c1-c1c(OC)cccc1OC` [Example 42, 6-butyl-5-(2,6-dimethoxy-phenyl)-3-((6′-fluoro-[3,3′-bipyridin]-6-yl)sulfonyl)-4-hydroxypyridin-2(1H)-one]: the EC50 (as a rule, the midpoint of the concentration-response curve) was 0.01 to 10 nM.
Then `CCCCc1[nH]c(=O)c(S(=O)(=O)c2ccc(Nc3ccc(F)cc3)cc2)c(O)c1-c1c(OC)cccc1OC` [Example 29, 6-butyl-5-(2,6-dimethoxyphenyl)-3-((4-((4-fluorophenyl)amino)phenyl)sulfonyl)-4-hydroxypyridin-2(1H)-one], with 0.01 to 10 nM.
On to `CCCCc1[nH]c(=O)c(S(=O)(=O)c2ccccc2Br)c(O)c1-c1c(OC)cccc1OC` [Example 15, 3-((2-bromophenyl)sulfonyl)-6-butyl-5-(2,6-dimethoxy-phenyl)-4-hydroxy-pyridin-2(1H)-one], for which the EC50 lay within 10 to 100 nM.
With `CCCCc1[nH]c(=O)c(S(=O)(=O)c2ccc(NC(=O)OC(C)(C)C)cc2)c(O)c1-c1c(OC)cccc1OC` [Example 8, tert-butyl (4-((6-butyl-5-(2,6-dimethoxy-phenyl)-4-hydroxy-2-oxo-1,2-dihydro-pyridin-3-yl)sulfonyl)phenyl) carbamate], the EC50 fell in the range of 0.01 to 10 nM.
Then `CCCCc1[nH]c(=O)c(S(=O)(=O)c2ccc(-n3cc(Cl)ccc3=O)cc2)c(O)c1-c1c(OC)cccc1OC` [Example 19, 6-Butyl-3-((4-(5-chloro-2-oxopyridin-1 (2H)-yl)phenyl)sulfonyl)-5-(2,6-dimethoxyphenyl)-4-hydroxypyridin-2(1H)-one], with 0.01 to 10 nM.
Take `CCCCc1[nH]c(=O)c(S(=O)(=O)c2ccc(C(C)C)cn2)c(O)c1-c1c(OC)cccc1OC` [Example 50, 6-Butyl-5-(2,6-dimethoxyphenyl)-4-hydroxy-3-((5-isopropylpyridin-2-yl)sulfonyl)pyridin-2(1H)-one]: the EC50 lay within 0.01 to 10 nM.
Consider `CCCCc1[nH]c(=O)c(S(=O)(=O)c2ccccn2)c(O)c1-c1c(OC)cccc1OC` [Example 46, 6-butyl-5-(2,6-dimethoxy-phenyl)-4-hydroxy-3-(pyridin-2-ylsulfonyl) pyridin-2(1H)-one], for which the EC50 lay in the range of 0.01 to 10 nM.
Then `CCCCc1[nH]c(=O)c(S(=O)(=O)c2ccc(-c3ccc(C(=O)NC4CC4)cc3)cn2)c(O)c1-c1c(OC)cccc1OC` [Example 45, 4-(6-((6-butyl-5-(2,6-dimethoxy-phenyl)-4-hydroxy-2-oxo-1,2-dihydro-pyridin-3-yl)sulfonyl)pyridin-3-yl)-N-cyclopropyl-benzamide], with 0.01 to 10 nM; and `CCCCc1[nH]c(=O)c(S(=O)(=O)c2ccc(-c3ccccc3C)cn2)c(O)c1-c1c(OC)cccc1OC` [Example 37, 6-butyl-5-(2,6-dimethoxy-phenyl)-4-hydroxy-3-((5-(o-tolyl)pyridin-2-yl)sulfonyl) pyridin-2(1H)-one], with 0.01 to 10 nM.
Take `CCCCc1[nH]c(=O)c(S(=O)(=O)c2ccc(-c3ccc(F)nc3)cc2)c(O)c1-c1c(OC)cccc1OC` [Example 6, 6-butyl-5-(2,6-dimethoxy-phenyl)-3-((4-(6-fluoro-pyridin-3-yl)phenyl)sulfonyl)-4-hydroxy-pyridin-2(1H)-one]: the EC50 is 0.01 to 10 nM.
Then `CCCCc1[nH]c(=O)c(S(=O)(=O)c2ccc(-c3ccc(F)cc3C)cn2)c(O)c1-c1c(OC)cccc1OC` [Example 36, 6-butyl-5-(2,6-dimethoxy-phenyl)-3-((5-(4-fluoro-2-methylphenyl)pyridin-2-yl)sulfonyl)-4-hydroxy-pyridin-2(1H)-one], with 0.01 to 10 nM.
As to `CCCCc1[nH]c(=O)c(S(=O)(=O)c2ccc(-c3ccc(F)nc3C)cc2)c(O)c1-c1c(OC)cccc1OC` [Example 5, 6-butyl-5-(2,6-dimethoxy-phenyl)-3-((4-(6-fluoro-2-methyl-pyridin-3-yl)phenyl)sulfonyl)-4-hydroxy-pyridin-2(1H)-one], the EC50 lay within 0.01 to 10 nM.
For `CCCCc1[nH]c(=O)c(S(=O)(=O)c2ccc(-c3cccc(F)c3C)cn2)c(O)c1-c1c(OC)cccc1OC` [Example 38, 6-butyl-5-(2,6-dimethoxy-phenyl)-3-((5-(3-fluoro-2-methylphenyl)pyridin-2-yl)sulfonyl)-4-hydroxy-pyridin-2(1H)-one], the EC50 was 0.01 to 10 nM.
Then `CCCCc1[nH]c(=O)c(S(=O)(=O)c2ccc(-c3ccc(F)nc3C)cn2)c(O)c1-c1c(OC)cccc1OC` [Example 41, 6-butyl-5-(2,6-dimethoxy-phenyl)-3-((6′-fluoro-2′-methyl-[3,3′-bipyridin]-6-yl)sulfonyl)-4-hydroxypyridin-2(1H)-one], with 0.01 to 10 nM; and `CCCCc1[nH]c(=O)c(S(=O)(=O)c2ccc(C)cn2)c(O)c1-c1c(OC)cccc1OC` [Example 39, 6-butyl-5-(2,6-dimethoxy-phenyl)-4-hydroxy-3-((5-methyl-pyridin-2-yl)sulfonyl) pyridin-2(1H)-one], with 0.01 to 10 nM; and `CCOCc1[nH]c(=O)c(S(=O)(=O)c2ccc(-n3cc(C)ccc3=O)cc2)c(O)c1-c1c(OC)cccc1OC` [Example 24, 5-(2,6-dimethoxy-phenyl)-6-(ethoxymethyl)-4-hydroxy-3-((4-(5-methyl-2-oxopyridin-1(2H)-yl)phenyl)sulfonyl) pyridin-2(1H)-one], with 0.01 to 10 nM.
For `CCOCc1[nH]c(=O)c(S(=O)(=O)c2ccc(-n3cc(Cl)ccc3=O)cc2)c(O)c1-c1c(OC)cccc1OC` [Example 21, 3-((4-(5-chloro-2-oxopyridin-1(2H)-yl)phenyl)sulfonyl)-5-(2,6-dimethoxy-phenyl)-6-(ethoxymethyl)-4-hydroxy-pyridin-2(1H)-one], the EC50 is 0.01 to 10 nM.
Regarding `CCCCc1[nH]c(=O)c(S(=O)(=O)c2ccc(C3CC3)cn2)c(O)c1-c1c(OC)cccc1OC` [Example 51, 6-Butyl-3-((5-cyclopropylpyridin-2-yl)sulfonyl)-5-(2,6-dimethoxyphenyl)-4-hydroxypyridin-2(1H)-one], the EC50 was in the range of 0.01 to 10 nM.
On to `CCCCc1[nH]c(=O)c(S(=O)(=O)c2nnc[nH]2)c(O)c1-c1c(OC)cccc1OC` [Example 48, 3-((4H-1,2,4-triazol-3-yl)sulfonyl)-6-butyl-5-(2,6-dimethoxy-phenyl)-4-hydroxy-pyridin-2(1H)-one], for which the EC50 was in the range of 10 to 100 nM.
For the compound `CCCCc1[nH]c(=O)c(S(=O)(=O)c2ccc(-c3ccncc3C)cc2)c(O)c1-c1c(OC)cccc1OC` [Example 3, 6-butyl-5-(2,6-dimethoxy-phenyl)-4-hydroxy-3-((4-(3-methyl-pyridin-4-yl)phenyl)sulfonyl) pyridin-2(1H)-one], the EC50 fell in the range of 0.01 to 10 nM.
Then `CCCCc1[nH]c(=O)c(S(=O)(=O)c2ccc(C3CC3)cc2)c(O)c1-c1c(OC)cccc1OC` [Example 7, 6-butyl-3-((4-cyclo-propylphenyl)sulfonyl)-5-(2,6-dimethoxy-phenyl)-4-hydroxy-pyridin-2(1H)-one], with 0.01 to 10 nM; and `CCCCc1[nH]c(=O)c(S(=O)(=O)c2ccc(-c3cccnc3OC)cc2)c(O)c1-c1c(OC)cccc1OC` [Example 2, 6-butyl-5-(2,6-dimethoxy-phenyl)-4-hydroxy-3-((4-(2-methoxy-pyridin-3-yl)phenyl)sulfonyl) pyridin-2(1H)-one], with 0.01 to 10 nM; and `CCCCc1[nH]c(=O)c(S(=O)(=O)c2ccc(Br)cn2)c(O)c1-c1c(OC)cccc1OC` [Example 32, 3-((5-bromopyridin-2-yl)sulfonyl)-6-butyl-5-(2,6-dimethoxyphenyl)-4-hydroxypyridin-2(1H)-one], with 0.01 to 10 nM.
Turning to `CCOCc1[nH]c(=O)c(S(=O)(=O)c2ccc(-n3ccccc3=O)cc2)c(O)c1-c1c(OC)cccc1OC` [Example 26, 5-(2,6-dimethoxy-phenyl)-6-(ethoxymethyl)-4-hydroxy-3-((4-(2-oxopyridin-1(2H)-yl)phenyl)sulfonyl) pyridin-2(1H)-one], the EC50 was in the range of 0.01 to 10 nM.
For `CCCCc1[nH]c(=O)c(S(=O)(=O)c2ccc(N)cc2)c(O)c1-c1c(OC)cccc1OC` [Example 27, 3-((4-aminophenyl)sulfonyl)-6-butyl-5-(2,6-dimethoxyphenyl)-4-hydroxypyridin-2(1H)-one], the EC50 is 0.01 to 10 nM.
For the compound `CCCCc1[nH]c(=O)c(S(=O)(=O)c2ccccc2)c(O)c1-c1c(OC)cccc1OC` [Example 10, 6-butyl-5-(2,6-dimethoxy-phenyl)-4-hydroxy-3-(phenyl-sulfonyl) pyridin-2(1H)-one], the EC50 fell in the range of 0.01 to 10 nM.
Consider `CCCCc1[nH]c(=O)c(S(=O)(=O)c2ccc(-n3ccccc3=O)cc2)c(O)c1-c1c(OC)cccc1OC` [Example 22, 6-butyl-5-(2,6-dimethoxy-phenyl)-4-hydroxy-3-((4-(2-oxopyridin-1(2H)-yl)phenyl)sulfonyl) pyridin-2(1H)-one], for which the EC50 lay within 0.01 to 10 nM.
